What was measured:
HiBiT-tagged MDM2 = target: T1, HiBiT-tagged MDM2 (Homo sapiens, UniProt Q00987); assay: MDM2 HiBit HEK293T degradation; assay type: cell-based; settings: HEK293T cells stably expressing C-terminally HiBiT-tagged MDM2; 4 h; read-out: MDM2 HiBit HEK293T degradation 4 h: Average external-Abs DC50
T1 construct: expressed in transfected cells
Experimental: HEK293T cells were grown overnight to 70-80% confluency in a 6-well plate in complete media (DMEM 10% FBS) in a 37° C. incubator with 5% CO2. Cells were transfected with 1 micrograms of C- or N-terminally HiBiT-tagged MDM2 constructs using Fugene 6 transfection reagent (Promega) as per manufacturer protocol. After overnight incubation at 37° C., growth media within the wells was replaced with selection media (DMEM+10% FBS+1 microgram/ml final concentration of Puromycin). Puromycin (selection antibiotic) concentrations required for complete cell kill were determined previously. Cells were monitored for the next 48h-96h to select for positively transfected cells. Surviving colonies were pooled and expanded in selection media. Expanded pools of HEK293T cells stably expressing C- and N-terminally HiBiT-tagged MDM2, were characterized using a MDM2 tool degrader and HaloPROTAC3 as positive control. HEK293T cells expressing C-terminally HiBiT-tagged MDM2 were subsequently used for assessment of degradation potencies for MDM2 degraders.
The letter codes for MDM2 degradation potency (DC50) include: A (<10 nM), B […], C (>100-1000 nM), and D (>1000 nM).

RS411 cells = assay: Cell Viability CTG Assay; assay type: cell-based; settings: Homo sapiens, RS4-11, CellTiter Glo (CTG) cell viability, read-out: Average external-IC50
Experimental: Compounds or DMSO 60 nL were stamped to the cell plate as the platemap. RS411 cells were centrifuged at 800 rpm for 5 min, suspended with culture medium, and counted with Countess (Invitrogen). The cell density was adjusted to the recommend information. 30 μL of cell solution (1000 cells/well) was added to the assay plate as the platemap and 30 μL of media was added to column 2 and column 23 as the platemap. The plate was spun down briefly. The final concentration of the compounds started at 10 μM (3 fold dilution and 11 doses) and final DMSO concentration was 0.2%. The plate was spun down briefly and incubated at 37° C., 5% CO2 for 1 day. […] 30 μL CellTiter Glo reagent was added to each well and the plate was centrifuged at 1000 rpm for 30 sec. The plate was shaken for 1 min and centrifuged at 1000 rpm for 30 sec. The plate was incubated at RT for 10 min to stabilize the luminescent signal and the luminescence was read by EnVision.
The letter codes for IC50 indicate the concentration of compound required to affect 50% of cells: A (<0.005 μM), B (0.005-0.05 μM), C (0.05-0.5 μM), and D (>0.5 μM).

T1 sequence (Q00987 whole entry): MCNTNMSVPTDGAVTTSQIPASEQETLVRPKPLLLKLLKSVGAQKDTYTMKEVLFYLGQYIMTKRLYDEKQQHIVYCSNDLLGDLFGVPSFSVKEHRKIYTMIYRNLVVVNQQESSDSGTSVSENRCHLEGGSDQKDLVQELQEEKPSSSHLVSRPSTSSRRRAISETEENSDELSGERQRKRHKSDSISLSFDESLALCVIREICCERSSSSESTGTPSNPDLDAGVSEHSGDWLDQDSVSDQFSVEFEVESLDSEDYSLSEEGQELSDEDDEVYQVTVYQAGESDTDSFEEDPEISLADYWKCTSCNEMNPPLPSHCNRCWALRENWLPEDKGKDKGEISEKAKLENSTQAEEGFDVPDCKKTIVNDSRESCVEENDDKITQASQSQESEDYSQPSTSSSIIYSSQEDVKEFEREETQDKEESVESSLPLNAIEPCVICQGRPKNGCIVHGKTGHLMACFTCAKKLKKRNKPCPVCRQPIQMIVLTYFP

Compound | DC50 (HiBiT-tagged MDM2) [nM] | IC50 (RS411 cells) [nM]
COc1cc2c(cc1OC(C)C)[C@H](c1ccc(Cl)cc1)N(c1ccc(N(C)C[C@H]3CC[C@H](N(CCC(=O)O)C(=O)CCCCc4ccc5c(c4)n(C)c(=O)n5C4CCC(=O)NC4=O)CC3)cc1)C(=O)C2 (stereo partly shown) [I-12] | 100 to 1000 | > 500
CC(C)[C@@H](CS(=O)(=O)C(C)C)N1C(=O)[C@@](C)(CC(=O)N[C@H]2CC[C@H](CN3CCN(CCCc4ccc5c(c4)n(C)c(=O)n5C4CCC(=O)NC4=O)CC3)CC2)C[C@H](c2cccc(Cl)c2)[C@H]1c1ccc(Cl)cc1 (stereo partly shown) [I-64] | 10 to 100 | 5 to 50
COc1cc2c(cc1OC(C)C)[C@H](c1ccc(Cl)cc1)N(c1ccc(N(C)C[C@H]3CC[C@H](N(CC(=O)O)C(=O)CCCCc4ccc5c(c4)n(C)c(=O)n5C4CCC(=O)NC4=O)CC3)cc1)C(=O)C2 (stereo partly shown) [I-93] | 100 to 1000 | > 500
CC(C)[C@@H](CS(=O)(=O)C(C)C)N1C(=O)[C@@](C)(CC(=O)Nc2ccc(C(=O)N3CCN(CCCc4ccc5c(c4)n(C)c(=O)n5C4CCC(=O)NC4=O)CC3)cc2)C[C@H](c2cccc(Cl)c2)[C@H]1c1ccc(Cl)cc1 (stereo partly shown) [I-9] | 10 to 100 | 5 to 50
Cn1c(=O)n(C2CCC(=O)NC2=O)c2ccc(C#CCC3(C(=O)O)CCN(C(=O)[C@H]4CC[C@H](NC(=O)[C@@H]5NC6(CCCCC6)[C@@]6(C(=O)Nc7cc(Cl)ccc76)[C@H]5c5cccc(Cl)c5F)CC4)CC3)cc21 (stereo partly shown) [I-44] | 10 to 100 | < 5
CN1C(C(=O)N[C@H]2CC[C@H](C(=O)N3CCC4(CC3)CN(c3ccc5c(c3)n(C)c(=O)n5C3CCC(=O)NC3=O)C4)CC2)[C@H](c2cccc(Cl)c2F)[C@]2(C(=O)Nc3cc(Cl)ccc32)C12CCCCC2 (stereo partly shown) [I-91] | < 10 | 5 to 50
Cn1c(=O)n(C2CCC(=O)NC2=O)c2ccc(CCCN3CCN(C[C@H]4CC[C@H](NC(=O)[C@@H]5NC6(CCCCC6)[C@@]6(C(=O)Nc7cc(Cl)ccc76)[C@H]5c5cccc(Cl)c5F)CC4)C(=O)C3)cc21 (stereo partly shown) [I-54] | < 10 | 5 to 50
Cn1c(=O)n(C2CCC(=O)NC2=O)c2ccc(C(=O)N3CC(OC4CN(C[C@H]5CC[C@H](NC(=O)[C@@H]6NC7(CCCCC7)[C@@]7(C(=O)Nc8cc(Cl)ccc87)[C@H]6c6cccc(Cl)c6F)CC5)C4)C3)cc21 (stereo partly shown) [I-58] | < 10 | 5 to 50
COc1cc2c(cc1OC(C)C)[C@H](c1ccc(Cl)cc1)N(c1ccc(N(C)CCC3CCN(CCCCC#Cc4ccn5c(N6CCC(=O)NC6=O)cnc5c4)CC3)cc1)C(=O)C2 [I-51] | 10 to 100 | 50 to 500
O=C1CCN(c2cnc3c(C4CCN(C(=O)[C@H]5CC[C@H](NC(=O)[C@@H]6NC7(CCCCC7)[C@@]7(C(=O)Nc8cc(Cl)ccc87)[C@H]6c6cccc(Cl)c6F)CC5)CC4)cccn23)C(=O)N1 [I-45] | < 10 | 5 to 50
Cn1c(=O)n([C@@H]2CCC(=O)NC2=O)c2ccc(C3CCN(C(=O)[C@H]4CC[C@H](NC(=O)[C@@H]5NC6(CCCCC6)[C@@]6(C(=O)Nc7cc(Cl)ccc76)[C@H]5c5cccc(Cl)c5F)CC4)CC3)cc21 (single isomer, unassigned) [I-104] | < 10 | < 5
Cn1c(=O)n(C2CCC(=O)NC2=O)c2ccc(C#CCC3(C(=O)O)CCN(C[C@H]4CC[C@H](NC(=O)[C@@H]5NC6(CCCCC6)[C@@]6(C(=O)Nc7cc(Cl)ccc76)[C@H]5c5cccc(Cl)c5F)CC4)CC3)cc21 (stereo partly shown) [I-8] | < 10 | 5 to 50
O=C1CCN(c2cnc3cc(C4CCN(C(=O)[C@H]5CC[C@H](NC(=O)[C@@H]6NC7(CCCCC7)[C@@]7(C(=O)Nc8cc(Cl)ccc87)[C@H]6c6cccc(Cl)c6F)CC5)CC4)ccn23)C(=O)N1 [I-42] | < 10 | < 5
Cn1c(=O)n(C2CCC(=O)NC2=O)c2ccc([C@@H]3CCN(C[C@H]4CC[C@H](NC(=O)[C@@H]5NC6(CCCCC6)[C@@]6(C(=O)Nc7cc(Cl)ccc76)[C@H]5c5cccc(Cl)c5F)CC4)C[C@@H]3F)cc21 (stereo partly shown) [I-85] | < 10 | 5 to 50
CC1(C)CCC2(CC1)N[C@@H](C(=O)N[C@H]1CC[C@H](CN3CCN(CCCc4cccn5c(N6CCC(=O)NC6=O)cnc45)CC3)CC1)[C@H](c1ccnc(Cl)c1F)[C@]21C(=O)Nc2cc(Cl)ccc21 [I-67] | < 10 | 5 to 50
Cn1c(=O)n(C2CCC(=O)NC2=O)c2ccc(CCCN3CCN(C[C@H]4CC[C@H](NC(=O)[C@@H]5NC6(CCC(C)(C)CC6)[C@@]6(C(=O)Nc7cc(Cl)ccc76)[C@H]5c5ccnc(Cl)c5F)CC4)C(=O)C3)cc21 (stereo partly shown) [I-56] | < 10 | < 5
Cn1c(=O)n(C2CCC(=O)NC2=O)c2ccc(C#CC3CCN(C[C@H]4CC[C@H](NC(=O)[C@@H]5NC6(CCC(C)(C)CC6)[C@@]6(C(=O)Nc7cc(Cl)ccc76)[C@H]5c5ccnc(Cl)c5F)CC4)C(=O)C3)cc21 (stereo partly shown) [I-77] | < 10 | 5 to 50
Cc1ccc2c(c1)NC(=O)[C@]21[C@@H](c2cccc(Cl)c2F)[C@H](C(=O)N[C@H]2CC[C@H](C(=O)N3CCC(c4ccc5c(c4)n(C)c(=O)n5C4CCC(=O)NC4=O)CC3)CC2)NC12CCCCC2 (stereo partly shown) [I-81] | < 10 | < 5
CC1(C)CCC2(CC1)NC(C(=O)N[C@H]1CC[C@H](CN3CCN(CCCc4ccn5c(N6CCC(=O)NC6=O)cnc5c4)CC3)CC1)[C@H](c1ccnc(Cl)c1F)[C@]21C(=O)Nc2cc(Cl)ccc21 (stereo partly shown) [I-26] | < 10 | < 5

Now from value to compound:

DC50 (HiBiT-tagged MDM2) [nM] | IC50 (RS411 cells) [nM] | Compound
< 10 | 5 to 50 | CC1(C)CCC2(CC1)NC(C(=O)N[C@H]1CC[C@H](CN3CCN(CCC#Cc4ccn5c(N6CCC(=O)NC6=O)cnc5c4)CC3)CC1)[C@H](c1ccnc(Cl)c1F)[C@]21C(=O)Nc2cc(Cl)ccc21 (stereo partly shown) [I-7]
< 10 | < 5 | Cn1c(=O)n(C2CCC(=O)NC2=O)c2ccc(CC[C@H]3CN(C[C@H]4CC[C@H](NC(=O)[C@@H]5NC6(CCCCC6)[C@@]6(C(=O)Nc7cc(Cl)ccc76)[C@H]5c5cccc(Cl)c5F)CC4)CCO3)cc21 (stereo partly shown) [I-11]
< 10 | < 5 | CN1CCN(C[C@H]2CC[C@H](NC(=O)[C@@H]3NC4(CCCCC4)[C@@]4(C(=O)Nc5cc(Cl)ccc54)[C@H]3c3cccc(Cl)c3F)CC2)C[C@@H]1CCc1ccc2c(c1)n(C)c(=O)n2C1CCC(=O)NC1=O (stereo partly shown) [I-13]
< 10 | < 5 | Cn1c(=O)n(C2CCC(=O)NC2=O)c2ccc(C3CCN(S(=O)(=O)NC(=O)[C@H]4CC[C@H](NC(=O)[C@@H]5NC6(CCCCC6)[C@@]6(C(=O)Nc7cc(Cl)ccc76)[C@H]5c5cccc(Cl)c5F)CC4)CC3)cc21 (stereo partly shown) [I-80]
< 10 | 5 to 50 | CN(CCc1ccc2c(c1)n(C)c(=O)n2C1CCC(=O)NC1=O)CCN(C)C(=O)[C@H]1CC[C@H](NC(=O)[C@@H]2NC3(CCCCC3)[C@@]3(C(=O)Nc4cc(Cl)ccc43)[C@H]2c2cccc(Cl)c2F)CC1 (stereo partly shown) [I-89]
< 10 | < 5 | CN1[C@@H](C(=O)Nc2ccc(CN3CCC(c4ccc5c(c4)n(C)c(=O)n5C4CCC(=O)NC4=O)CC3)cc2)[C@H](c2cccc(Cl)c2F)[C@]2(C(=O)Nc3cc(Cl)ccc32)C12CCCCC2 (stereo partly shown) [I-28]
< 10 | < 5 | Cn1c(=O)n(C2CCC(=O)NC2=O)c2ccc(C3CCN(C[C@H]4CC[C@H](NC(=O)[C@@H]5NC6(CCCCC6)[C@@]6(C(=O)Nc7cc(Cl)ccc76)[C@H]5c5cccc(Cl)c5F)CC4)CC3(F)F)cc21 (stereo partly shown) [I-52]
< 10 | 5 to 50 | COc1cc2c(cc1OC(C)C)[C@H](c1ccc(Cl)cc1)N(c1ccc(N(C)C[C@H]3CC[C@H](N4CCN(CCc5cccc6c5n(C)c(=O)n6C5CCC(=O)NC5=O)CC4)CC3)cc1)C(=O)C2 (stereo partly shown) [I-63]
< 10 | < 5 | Cn1c(=O)n(C2CCC(=O)NC2=O)c2ccc(CCN3CCN(C(=O)CN4CCC(NC(=O)[C@@H]5NC6(CCC(C)(C)CC6)[C@@]6(C(=O)Nc7cc(Cl)ccc76)[C@H]5c5ccnc(Cl)c5F)CC4)CC3)cc21 (stereo partly drawn) [I-32, (3′R,4′S,5′R)-6″-chloro-4′-(2-chloro-3-fluoropyridin-4-yl)-N-(1-(2-(4-(2-(1-(2,6-dioxopiperidin-3-yl)-3-methyl-2-oxo-2,3-dihydro-1H-benzo[d]imidazol-5-yl)ethyl)piperazin-1-yl)-2-oxoethyl)piperidin-4-yl)-4,4-dimethyl-2″-oxodispiro[cyclohexane-1,2′-pyrrolidine-3′,3″-indoline]-5′-carboxamide]
< 10 | < 5 | CN1[C@@H](C(=O)N[C@H]2CC[C@H](CN3CCC(c4ccc5c(c4)n(C)c(=O)n5C4CCC(=O)NC4=O)CC3)CC2)[C@H](c2ccnc(Cl)c2F)[C@]2(C(=O)Nc3cc(Cl)ccc32)C12CCC(C)(C)CC2 (stereo partly shown) [I-14]

— patent US20250034147A1, “MDM2 DEGRADERS AND USES THEREOF” (Kymera Therapeutics, Inc., priority 2021, published 2025)
